{
  "source": "paper PMC5218480",
  "about": "(PLoS ONE, 2017)",
  "test_system": "MV-4-11 cells",
  "assay": "Gene expression microarray analysis (Affymetrix PrimeView) and GSEA",
  "type": "cell-based, human",
  "design": "RFU PODN (11730768_x_at) / Fold change /veh PODN (11730768_x_at) / RFU LINC00158 (11744669_a_at) / Fold change /veh LINC00158 (11744669_a_at) / RFU DUSP10 (11751237_a_at) / Fold change /veh DUSP10 (11751237_a_at) / RFU ID3 (11757404_x_at) / Fold change /veh ID3 (11757404_x_at) / RFU PLEKHG5 (11737974_s_at) / Fold change /veh PLEKHG5 (11737974_s_at) / RFU LRRC4B (11730491_at) / Fold change /veh LRRC4B (11730491_at) / RFU GIMAP4 (11747438_a_at) / Fold change /veh GIMAP4 (11747438_a_at) / RFU KRT8 (11758183_x_at) / Fold change /veh KRT8 (11758183_x_at) / RFU CNN1 (11734310_a_at) / Fold change /veh CNN1 (11734310_a_at) / RFU VPS37D (11726825_at) / Fold change /veh VPS37D (11726825_at) / RFU C10orf10 (11716522_x_at) / Fold change /veh C10orf10 (11716522_x_at) / RFU KIR2DL2 /// KIR2DL4 /// KIR2DL5A /// KIR2DL5B /// KIR2DS1 /// KIR2DS2 /// KIR2DS3 /// KIR2DS4 /// KIR3DL3 /// KIR3DL3 /// KIR3DS1 (11738374_at) / Fold change /veh KIR2DL2 /// KIR2DL4 /// KIR2DL5A /// KIR2DL5B /// KIR2DS1 /// KIR2DS2 /// KIR2DS3 /// KIR2DS4 /// KIR3DL3 /// KIR3DL3 /// KIR3DS1 (11738374_at) / RFU C1QL1 (11718748_at) / Fold change /veh C1QL1 (11718748_at) / RFU TMPRSS4 (11747572_a_at) / Fold change /veh TMPRSS4 (11747572_a_at) / RFU HAMP (11756126_x_at) / Fold change /veh HAMP (11756126_x_at) / RFU RNFT2 (11725882_a_at) / Fold change /veh RNFT2 (11725882_a_at) / RFU NR4A2 (11747474_a_at) / Fold change /veh NR4A2 (11747474_a_at) / RFU ABCC12 (11746883_a_at) / Fold change /veh ABCC12 (11746883_a_at) / RFU TMEM136 (11760407_x_at) / Fold change /veh TMEM136 (11760407_x_at) / RFU CLDN22 /// WWC2 (11732394_at) / Fold change /veh CLDN22 /// WWC2 (11732394_at) / RFU HLA-DPB1 (11760878_x_at) / Fold change /veh HLA-DPB1 (11760878_x_at) / RFU SPINT1 (11716480_a_at) / Fold change /veh SPINT1 (11716480_a_at) / RFU GAP43 (11754022_s_at) / Fold change /veh GAP43 (11754022_s_at) / RFU A4GNT (11735810_at) / Fold change /veh A4GNT (11735810_at) / RFU PRB3 (11715151_x_at) / Fold change /veh PRB3 (11715151_x_at) / RFU TUBB4B (11761932_at) / Fold change /veh TUBB4B (11761932_at) / RFU CAPN14 (11732068_a_at) / Fold change /veh CAPN14 (11732068_a_at) / RFU TMCC2 (11721928_a_at) / Fold change /veh TMCC2 (11721928_a_at) / RFU IRGQ (11745062_a_at) / Fold change /veh IRGQ (11745062_a_at) / RFU FAM174B (11720279_a_at) / Fold change /veh FAM174B (11720279_a_at) / RFU TMPRSS4 (11748680_a_at) / Fold change /veh TMPRSS4 (11748680_a_at) / RFU FAM212B (11763350_a_at) / Fold change /veh FAM212B (11763350_a_at) / RFU PLEKHG5 (11743358_a_at) / Fold change /veh PLEKHG5 (11743358_a_at) / RFU ZSCAN30 (11745921_a_at) / Fold change /veh ZSCAN30 (11745921_a_at) / RFU CMKLR1 (11741424_a_at) / Fold change /veh CMKLR1 (11741424_a_at) / RFU LOC101060620 /// MAPK8IP1 (11723275_at) / Fold change /veh LOC101060620 /// MAPK8IP1 (11723275_at) / RFU SPTSSB (11747773_x_at) / Fold change /veh SPTSSB (11747773_x_at) / RFU PRSS12 (11739890_at) / Fold change /veh PRSS12 (11739890_at) / RFU BIN1 (11741810_x_at) / Fold change /veh BIN1 (11741810_x_at) / RFU WNT11 (11732464_a_at) / Fold change /veh WNT11 (11732464_a_at) / RFU C10orf10 (11716521_a_at) / Fold change /veh C10orf10 (11716521_a_at) / RFU C5orf56 (11738089_at) / Fold change /veh C5orf56 (11738089_at) / RFU CYB561 (11721691_x_at) / Fold change /veh CYB561 (11721691_x_at) / RFU ANKRD19P (11752326_a_at) / Fold change /veh ANKRD19P (11752326_a_at) / RFU OR2T12 /// OR2T33 /// OR2T8 (11738714_s_at) / Fold change /veh OR2T12 /// OR2T33 /// OR2T8 (11738714_s_at) / RFU VCAN (11748164_a_at) / Fold change /veh VCAN (11748164_a_at) / RFU JSRP1 (11732532_at) / Fold change /veh JSRP1 (11732532_at) / RFU KRTAP10-11 (11738290_x_at) / Fold change /veh KRTAP10-11 (11738290_x_at) / RFU MYO3A (11730013_a_at) / Fold change /veh MYO3A (11730013_a_at) / RFU EBF3 (11725865_a_at) / Fold change /veh EBF3 (11725865_a_at) / RFU CAMK2N1 (11719241_x_at) / Fold change /veh CAMK2N1 (11719241_x_at) / RFU C5orf56 (11738088_a_at) / Fold change /veh C5orf56 (11738088_a_at) / RFU OLFML3 (11715873_a_at) / Fold change /veh OLFML3 (11715873_a_at) / RFU LOC100653217 /// NTM (11731650_a_at) / Fold change /veh LOC100653217 /// NTM (11731650_a_at) / RFU MAPK11 (11762145_a_at) / Fold change /veh MAPK11 (11762145_a_at) / RFU FIZ1 (11724087_x_at) / Fold change /veh FIZ1 (11724087_x_at) / RFU OASL (11726364_x_at) / Fold change /veh OASL (11726364_x_at) / RFU SOX15 (11748057_x_at) / Fold change /veh SOX15 (11748057_x_at) / RFU CD79A (11719716_a_at) / Fold change /veh CD79A (11719716_a_at) / RFU HIST1H1D (11736915_at) / Fold change /veh HIST1H1D (11736915_at) / RFU CASKIN2 (11723855_a_at) / Fold change /veh CASKIN2 (11723855_a_at) / RFU LOC730098 (11760151_x_at) / Fold change /veh LOC730098 (11760151_x_at) / RFU OR4N2 (11742367_at) / Fold change /veh OR4N2 (11742367_at) / RFU PRRT2 (11749266_a_at) / Fold change /veh PRRT2 (11749266_a_at) / RFU SNX32 (11753110_a_at) / Fold change /veh SNX32 (11753110_a_at) / RFU CDHR5 (11726645_a_at) / Fold change /veh CDHR5 (11726645_a_at) / RFU RCAN1 (11760418_a_at) / Fold change /veh RCAN1 (11760418_a_at) / RFU FAM167A (11723789_a_at) / Fold change /veh FAM167A (11723789_a_at) / RFU FAM26E (11764081_at) / Fold change /veh FAM26E (11764081_at) / RFU ISYNA1 (11749810_s_at) / Fold change /veh ISYNA1 (11749810_s_at) / RFU ACY1 (11761880_at) / Fold change /veh ACY1 (11761880_at) / RFU 11764098_at / Fold change /veh 11764098_at / RFU SAMD14 (11745864_x_at) / Fold change /veh SAMD14 (11745864_x_at) / RFU NPB (11741838_a_at) / Fold change /veh NPB (11741838_a_at) / RFU TMPRSS6 (11731388_a_at) / Fold change /veh TMPRSS6 (11731388_a_at) / RFU KRTAP10-2 (11738614_at) / Fold change /veh KRTAP10-2 (11738614_at) / RFU ARHGAP8 /// PRR5-ARHGAP8 (11727945_x_at) / Fold change /veh ARHGAP8 /// PRR5-ARHGAP8 (11727945_x_at) / RFU KRTAP5-7 /// NADSYN1 (11734609_at) / Fold change /veh KRTAP5-7 /// NADSYN1 (11734609_at) / RFU RASL12 (11751679_a_at) / Fold change /veh RASL12 (11751679_a_at) / RFU CDKN2B (11736163_a_at) / Fold change /veh CDKN2B (11736163_a_at) / RFU PRF1 (11729649_at) / Fold change /veh PRF1 (11729649_at) / RFU, ZNF638 /// ZNF638-IT1 / Fold change vs veh, ZNF638 /// ZNF638-IT1 / RFU, PANK3 / Fold change vs veh, PANK3 / RFU, SH3YL1 / Fold change vs veh, SH3YL1 / RFU, ZEB2 / Fold change vs veh, ZEB2 / RFU, NRIP1 / Fold change vs veh, NRIP1 / RFU, PTTG1IP / Fold change vs veh, PTTG1IP / RFU, CAPN2 / Fold change vs veh, CAPN2 / RFU, MED14 / Fold change vs veh, MED14 / RFU, SNORA58 / Fold change vs veh, SNORA58 / RFU, C1orf63 / Fold change vs veh, C1orf63 / RFU, LRRFIP1 / Fold change vs veh, LRRFIP1 / RFU, NDUFAF7 / Fold change vs veh, NDUFAF7 / RFU, SLC12A2 / Fold change vs veh, SLC12A2 / RFU, IBTK / Fold change vs veh, IBTK / RFU, ESF1 / Fold change vs veh, ESF1 / Fold change vs veh, TMEM50B / RFU, TAOK1 / Fold change vs veh, TAOK1 / RFU, ACBD3 / Fold change vs veh, ACBD3 / RFU, TMA16 / Fold change vs veh, TMA16 / RFU, RWDD3 / Fold change vs veh, RWDD3 / RFU, BCAT1 / Fold change vs veh, BCAT1 / RFU, EDEM3 / Fold change vs veh, EDEM3 / RFU, TMEM33 / Fold change vs veh, TMEM33 / RFU, WDR75 / Fold change vs veh, WDR75 / RFU, AHCTF1 / Fold change vs veh, AHCTF1 / RFU, TFRC / Fold change vs veh, TFRC / RFU, ZDHHC17 / Fold change vs veh, ZDHHC17 / RFU, NOM1 / Fold change vs veh, NOM1 / RFU, ARL8B / Fold change vs veh, ARL8B / RFU, ZBTB11 / Fold change vs veh, ZBTB11 / RFU, TAMM41 / Fold change vs veh, TAMM41 / RFU, KIAA1704 /// LOC100996395 / Fold change vs veh, KIAA1704 /// LOC100996395 / RFU, ING1 / Fold change vs veh, ING1 / RFU, TRMT61B / Fold change vs veh, TRMT61B / RFU, FUBP3 / Fold change vs veh, FUBP3 / RFU, TP53 / Fold change vs veh, TP53 / RFU, TNKS2 / Fold change vs veh, TNKS2 / RFU, ZFP14 / Fold change vs veh, ZFP14 / RFU, ACTR2 / Fold change vs veh, ACTR2 / RFU, PPP3R1 / Fold change vs veh, PPP3R1 / RFU, PIK3R1 / Fold change vs veh, PIK3R1 / RFU, HNRNPA1 / Fold change vs veh, HNRNPA1 / RFU, RNF170 / Fold change vs veh, RNF170 / RFU, ZNF28 / Fold change vs veh, ZNF28 / RFU, RNGTT / Fold change vs veh, RNGTT / RFU, OGT / Fold change vs veh, OGT / RFU, BRD1 / Fold change vs veh, BRD1 / RFU, MARS / Fold change vs veh, MARS / RFU, ZNF655 / Fold change vs veh, ZNF655 / RFU, FAHD1 / Fold change vs veh, FAHD1 / RFU, BDP1 / Fold change vs veh, BDP1 / RFU, LRRCC1 / Fold change vs veh, LRRCC1 / RFU, ARID1A / Fold change vs veh, ARID1A / RFU, ZNF146 / Fold change vs veh, ZNF146 / RFU, ZNF330 / Fold change vs veh, ZNF330 / RFU, GPN3 / Fold change vs veh, GPN3 / RFU, C9orf123 / Fold change vs veh, C9orf123 / RFU, N4BP2L2 / Fold change vs veh, N4BP2L2 / RFU, ARFIP1 / Fold change vs veh, ARFIP1 / RFU, FAM179B / Fold change vs veh, FAM179B / RFU, BCL10 / Fold change vs veh, BCL10 / RFU, UHRF1BP1L / Fold change vs veh, UHRF1BP1L / RFU, BET1 / Fold change vs veh, BET1 / RFU, CNOT2 / Fold change vs veh, CNOT2 / RFU, ZNF268 / Fold change vs veh, ZNF268 / Fold change vs veh, ZNF507 / RFU, DGCR2 / Fold change vs veh, DGCR2 / RFU, WDSUB1 / Fold change vs veh, WDSUB1 / Fold change vs veh, HSP90B1 /// MIR3652 / RFU, ADSS / Fold change vs veh, ADSS / RFU, GK / Fold change vs veh, GK / RFU, ZNF148 / Fold change vs veh, ZNF148 / RFU, TAF9 / Fold change vs veh, TAF9 / RFU, SLC1A5 / Fold change vs veh, SLC1A5 / RFU, SLMO2 / Fold change vs veh, SLMO2 / RFU, ABCC4 / Fold change vs veh, ABCC4 / RFU, LOC101060439 /// RAP1B / Fold change vs veh, LOC101060439 /// RAP1B / RFU, RFX7 / Fold change vs veh, RFX7 / RFU, GTPBP10 / Fold change vs veh, GTPBP10 / RFU, CNEP1R1 / Fold change vs veh, CNEP1R1 / RFU, BIVM-ERCC5 /// ERCC5 / Fold change vs veh, BIVM-ERCC5 /// ERCC5 / RFU, ILF3 / Fold change vs veh, ILF3 / RFU 11762660_at / Fold change /veh 11762660_at / RFU VCAN (11757783_s_at) / Fold change /veh VCAN (11757783_s_at) / RFU DDX43 (11728927_at) / Fold change /veh DDX43 (11728927_at) / RFU KRT8 (11758188_x_at) / Fold change /veh KRT8 (11758188_x_at) / RFU NKD1 (11759106_at) / Fold change /veh NKD1 (11759106_at) / RFU SRD5A1 (11742802_a_at) / Fold change /veh SRD5A1 (11742802_a_at) / RFU TPSAB1 /// TPSB2 (11721975_s_at) / Fold change /veh TPSAB1 /// TPSB2 (11721975_s_at) / RFU GSTM3 (11746129_a_at) / Fold change /veh GSTM3 (11746129_a_at) / RFU IL23R (11737362_x_at) / Fold change /veh IL23R (11737362_x_at) / RFU TMEM51 (11727254_a_at) / Fold change /veh TMEM51 (11727254_a_at) / RFU PIWIL2 (11732686_x_at) / Fold change /veh PIWIL2 (11732686_x_at) / RFU ORM1 (11744905_x_at) / Fold change /veh ORM1 (11744905_x_at) / RFU CCDC152 (11743942_at) / Fold change /veh CCDC152 (11743942_at) / RFU ECM1 (11717891_a_at) / Fold change /veh ECM1 (11717891_a_at) / RFU IL23R (11748794_a_at) / Fold change /veh IL23R (11748794_a_at) / RFU TNFAIP8L3 (11732012_x_at) / Fold change /veh TNFAIP8L3 (11732012_x_at) / RFU MBOAT4 (11741988_at) / Fold change /veh MBOAT4 (11741988_at) / RFU 11764193_at / Fold change /veh 11764193_at / RFU TMEM53 (11763286_at) / Fold change /veh TMEM53 (11763286_at) / RFU MAGEB2 (11727129_at) / Fold change /veh MAGEB2 (11727129_at) / RFU TMEM200A (11744735_a_at) / Fold change /veh TMEM200A (11744735_a_at) / RFU CCDC152 (11751479_a_at) / Fold change /veh CCDC152 (11751479_a_at) / RFU FAM211A (11726209_a_at) / Fold change /veh FAM211A (11726209_a_at) / RFU RGS16 (11746705_a_at) / Fold change /veh RGS16 (11746705_a_at) / RFU VCAN (11755009_s_at) / Fold change /veh VCAN (11755009_s_at) / RFU RHOB (11743442_s_at) / Fold change /veh RHOB (11743442_s_at) / RFU RGS16 (11720943_a_at) / Fold change /veh RGS16 (11720943_a_at) / RFU RGS16 (11720944_at) / Fold change /veh RGS16 (11720944_at) / RFU, VPS4B / Fold change vs veh, VPS4B / RFU, CREB1 / Fold change vs veh, CREB1 / RFU, DNAJC13 / Fold change vs veh, DNAJC13 / RFU, GNAQ / Fold change vs veh, GNAQ / RFU, CDK5R1 / Fold change vs veh, CDK5R1 / RFU, ZRANB3 / Fold change vs veh, ZRANB3 / RFU, CUL4A / Fold change vs veh, CUL4A / RFU, CCNY / Fold change vs veh, CCNY / RFU, UFL1 / Fold change vs veh, UFL1 / RFU, COG3 / Fold change vs veh, COG3 / RFU, DIAPH2 / Fold change vs veh, DIAPH2 / RFU, SKA2 / Fold change vs veh, SKA2 / RFU, AFF3 / Fold change vs veh, AFF3 / RFU, LMF1 / Fold change vs veh, LMF1 / RFU, IPO11 / Fold change vs veh, IPO11 / RFU, DFFB / Fold change vs veh, DFFB / RFU, FOXP1 / Fold change vs veh, FOXP1 / RFU, CARD8 / Fold change vs veh, CARD8 / RFU, STRN3 / Fold change vs veh, STRN3 / RFU, ADK / Fold change vs veh, ADK / RFU, RASSF2 / Fold change vs veh, RASSF2 / RFU, WIPF1 / Fold change vs veh, WIPF1 / RFU, LARP1B / Fold change vs veh, LARP1B / RFU, RASA1 / Fold change vs veh, RASA1 / RFU, RB1 / Fold change vs veh, RB1 / RFU, PPFIA1 / Fold change vs veh, PPFIA1 / RFU, MAT2A / Fold change vs veh, MAT2A / RFU, CCT5 / Fold change vs veh, CCT5 / RFU, WDR92 / Fold change vs veh, WDR92 / RFU, CUX1 / Fold change vs veh, CUX1 / RFU, TTC7A / Fold change vs veh, TTC7A / RFU, TMEM135 / Fold change vs veh, TMEM135 / RFU, DEPTOR / Fold change vs veh, DEPTOR / RFU, CPM / Fold change vs veh, CPM / RFU, DNAJB6 / Fold change vs veh, DNAJB6 / RFU, CACNA2D3 / Fold change vs veh, CACNA2D3 / RFU, DTX4 / Fold change vs veh, DTX4 / RFU, TFCP2 / Fold change vs veh, TFCP2 / RFU, GMCL1 /// GMCL1P1 / Fold change vs veh, GMCL1 /// GMCL1P1 / RFU, AEBP2 / Fold change vs veh, AEBP2 / RFU, SNHG1 /// SNORD22 /// SNORD25 /// SNORD26 /// SNORD27 /// SNORD28 /// SNORD29 /// SNORD31 / Fold change vs veh, SNHG1 /// SNORD22 /// SNORD25 /// SNORD26 /// SNORD27 /// SNORD28 /// SNORD29 /// SNORD31 / Fold change (Aza/veh), C12orf56 (ProbeSet 11735607_a_at) / Fold change (ACY-1035/veh), C12orf56 (ProbeSet 11735607_a_at) / Fold change (Aza/veh), FGFR1OP (ProbeSet 11751329_s_at) / Fold change (ACY-1035/veh), FGFR1OP (ProbeSet 11751329_s_at) / Fold change (Aza/veh), VPS36 (ProbeSet 11739960_a_at) / Fold change (ACY-1035/veh), VPS36 (ProbeSet 11739960_a_at) / RFU SYPL1 (11715823_x_at) / Fold change /veh SYPL1 (11715823_x_at) / RFU IGFBP7 (11715501_s_at) / Fold change /veh IGFBP7 (11715501_s_at) / RFU REEP3 (11722064_at) / Fold change /veh REEP3 (11722064_at) / RFU IGLL1 (11728026_x_at) / Fold change /veh IGLL1 (11728026_x_at): dose or concentration left out as unconfirmed",
  "conditions": "ProbeSet 11723141_at; LIST B",
  "data": [
    {"smiles": "Nc1ncn([C@@H]2O[C@H](CO)[C@@H](O)[C@H]2O)c(=O)n1", "note": "[azacitidine]", "values": [
      {"measurement": "Fold change vs veh, ZBTB11", "value": 0.93}
    ]}
  ]
}
